Assay results from ChEMBL document CHEMBL1201862, “PubChem BioAssay data set” (2004).
The source made the active and inactive calls.

Columns and labels:
[1] = target: T1, RNA-binding protein pos-1 (Caenorhabditis elegans, UniProt G5EF15); experiment: disruptors of C. elegans POS-1 RNA interaction – biochemical, fluorescence polarization, dose response (AID 1964);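 also: purified POS-1 fused to maltose binding protein made in E. coli; potency of compounds blocking POS-1 binding to fluorescent RNA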
T1 sequence (G5EF15 whole entry): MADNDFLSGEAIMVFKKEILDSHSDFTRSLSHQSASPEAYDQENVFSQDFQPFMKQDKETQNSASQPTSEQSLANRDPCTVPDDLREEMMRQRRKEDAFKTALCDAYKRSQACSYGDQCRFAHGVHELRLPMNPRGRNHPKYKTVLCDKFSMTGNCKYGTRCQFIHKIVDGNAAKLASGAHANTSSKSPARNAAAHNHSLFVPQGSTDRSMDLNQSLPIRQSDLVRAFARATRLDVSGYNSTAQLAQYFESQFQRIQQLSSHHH

[2] = target: T2, Zinc finger protein mex-5 (Caenorhabditis elegans, UniProt Q9XUB2); experiment: potency of MEX-5 RNA-binding blockers – biochemical, C. elegans, fluorescence polarization, dose response (AID 1960)
T2 sequence (Q9XUB2 whole entry): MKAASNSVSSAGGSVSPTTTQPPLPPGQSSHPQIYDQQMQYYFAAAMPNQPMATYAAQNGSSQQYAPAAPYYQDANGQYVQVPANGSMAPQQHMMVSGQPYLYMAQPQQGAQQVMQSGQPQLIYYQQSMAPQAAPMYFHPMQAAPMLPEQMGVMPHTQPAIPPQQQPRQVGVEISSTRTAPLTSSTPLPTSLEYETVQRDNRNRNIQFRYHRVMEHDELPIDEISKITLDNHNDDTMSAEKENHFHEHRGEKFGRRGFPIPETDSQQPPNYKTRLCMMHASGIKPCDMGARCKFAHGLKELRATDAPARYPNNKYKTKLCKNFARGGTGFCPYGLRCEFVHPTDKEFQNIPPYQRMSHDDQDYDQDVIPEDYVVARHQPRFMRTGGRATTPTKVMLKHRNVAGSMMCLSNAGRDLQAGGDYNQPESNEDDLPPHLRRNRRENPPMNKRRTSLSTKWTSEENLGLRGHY

Melanocortin receptor 4 = Melanocortin receptor 4 (Homo sapiens, UniProt P32245); experiment: inhibitors of MC4R cAMP signaling – cell-based, TR-FRET, biased antagonists, dose response (AID 602298); format: functional;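 also: antagonist potency against agonist-stimulated cAMP production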
[3] = cAMP pathway inhibition in counterscreen cell line – TR-FRET cAMP detection, counter-screen for MC4R biased antagonist project, dose response (AID 602305); format: functional, cell-based;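 also: U2OS cells stimulated with forskolin near its EC80 as the cAMP inducer; potency is for inhibition of forskolin-stimulated cAMP signaling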
[4] = target: Peroxisome proliferator-activated receptor gamma/Nuclear receptor coactivator 2 (Homo sapiens, UniProt P37231); format: functional;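 also: agonist potency for raising coactivator recruitment to the receptor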
[5] = target: Peroxisome proliferator-activated receptor gamma/Nuclear receptor coactivator 1 (Homo sapiens, UniProt P37231); format: functional;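 also: agonist potency as compounds enhance coactivator SRC-1 recruitment to PPARgamma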
[6] = target: Peroxisome proliferator-activated receptor gamma/Nuclear receptor coactivator 3 (Homo sapiens, UniProt P37231); format: functional;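 also: agonist potency for raising coactivator recruitment to the receptor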
BJ [7] = experiment: BJ-TERT fibroblast viability loss – cell-based, RAS-independent, luminescence, dose response (AID 1933); format: functional; conditions: Homo sapiens
BJ [8] = experiment: cells; format: functional, cell-based; conditions: Homo sapiens
BJ [9] = experiment: BJ-TERT-LT-ST fibroblast viability loss – cell-based, RAS-independent, luminescence, dose response (AID 1935); format: functional; conditions: Homo sapiens;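 also: BJ fibroblasts immortalized with TERT plus LT and ST oncogenes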
[10] = DRD fibroblast viability loss – cell-based, non-viral oncogenic, luminescence, dose response (AID 1934); format: functional; conditions: Homo sapiens
[11] = reduction of Shn3 3'UTR-driven luciferase in osteoblasts – cell-based, Clone20 osteoblasts, firefly luciferase, cherry-picked, dose response (AID 624132); format: functional;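 also: firefly luciferase luminescence from reporter carrying the Shn3 3'UTR in osteoblasts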
[12] = loss of viability in HepG2 cells – cell-based, CellTiter-Glo, cherry-picked, cytotoxicity control for Shn3 inhibitor project, dose response (AID 624134); format: functional
[13] = non-specific 3'UTR reporter inhibition in Clone20-Shn3RL – cell-based, Renilla luciferase, cherry-picked, counter-screen for Shn3 inhibitor project, dose response (AID 624133); format: functional
[14] = target: Eukaryotic translation initiation factor 4E (Mus musculus, UniProt P63073); experiment: blockers of eIF4G binding by eIF4E – biochemical, TR-FRET, dose response (AID 855); format: functional;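 also: potency for disrupting eIF4E binding to eIF4GI seen as loss of FRET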
Coagulation factor XII = target: T3, Coagulation factor XII (Homo sapiens, UniProt P00748); format: functional;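 also: activated factor XIIa alpha cleaving a fluorogenic AMC peptide substrate; inhibitor potency from loss of enzyme activity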
T3 sequence (P00748 whole entry): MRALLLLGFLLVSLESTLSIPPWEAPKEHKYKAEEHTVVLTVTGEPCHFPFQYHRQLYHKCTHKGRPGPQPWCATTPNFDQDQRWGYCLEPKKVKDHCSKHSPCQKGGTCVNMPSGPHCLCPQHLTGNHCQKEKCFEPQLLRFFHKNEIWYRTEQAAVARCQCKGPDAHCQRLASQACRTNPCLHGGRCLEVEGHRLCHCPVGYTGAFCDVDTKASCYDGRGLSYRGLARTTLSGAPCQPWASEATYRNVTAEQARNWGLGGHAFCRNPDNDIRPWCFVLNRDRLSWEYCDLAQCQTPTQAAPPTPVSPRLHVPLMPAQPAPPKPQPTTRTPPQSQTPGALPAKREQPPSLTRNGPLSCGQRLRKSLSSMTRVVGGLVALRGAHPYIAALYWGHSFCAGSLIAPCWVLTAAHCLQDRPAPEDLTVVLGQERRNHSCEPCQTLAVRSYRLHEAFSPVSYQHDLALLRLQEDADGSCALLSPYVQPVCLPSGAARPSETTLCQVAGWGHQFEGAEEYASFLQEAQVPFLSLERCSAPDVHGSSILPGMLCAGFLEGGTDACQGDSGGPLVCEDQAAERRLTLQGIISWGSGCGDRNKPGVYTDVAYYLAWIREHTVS

[15] = target: Glyceraldehyde-3-phosphate dehydrogenase (Homo sapiens, UniProt P04406)
[16] = target: T4, Alkaline phosphatase, tissue-nonspecific isozyme (Homo sapiens, UniProt P05186); experiment: potency against alkaline phosphatase TNAP – biochemical, luminescent, dose response, SAR follow-up (AID 1056)
T4 sequence (P05186 whole entry): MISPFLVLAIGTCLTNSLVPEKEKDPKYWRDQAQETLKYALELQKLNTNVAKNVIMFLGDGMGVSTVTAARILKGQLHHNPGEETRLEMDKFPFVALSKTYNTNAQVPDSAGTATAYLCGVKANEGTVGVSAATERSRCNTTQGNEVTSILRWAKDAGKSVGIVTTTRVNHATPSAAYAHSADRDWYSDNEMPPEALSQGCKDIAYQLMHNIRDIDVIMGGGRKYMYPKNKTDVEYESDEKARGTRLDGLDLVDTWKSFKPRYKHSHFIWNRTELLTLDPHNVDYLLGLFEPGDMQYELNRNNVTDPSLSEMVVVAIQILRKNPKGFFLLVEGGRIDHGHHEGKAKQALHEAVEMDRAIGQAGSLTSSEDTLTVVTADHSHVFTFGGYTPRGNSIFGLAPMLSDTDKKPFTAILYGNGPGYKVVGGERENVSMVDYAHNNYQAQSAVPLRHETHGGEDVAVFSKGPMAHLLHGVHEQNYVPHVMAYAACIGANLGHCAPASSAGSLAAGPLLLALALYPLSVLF

[17] = target: T5, Corticotropin-releasing factor receptor 2/Corticotropin-releasing factor-binding protein (Homo sapiens, UniProt P24387+Q13324); experiment: Dose Response confirmation of uHTS hits for small molecule antagonists of the CRF-binding protein and CRF-R2 receptor complex.; format: functional; conditions: read-out: IC50_Mean
T5 sequence (Q13324 whole entry): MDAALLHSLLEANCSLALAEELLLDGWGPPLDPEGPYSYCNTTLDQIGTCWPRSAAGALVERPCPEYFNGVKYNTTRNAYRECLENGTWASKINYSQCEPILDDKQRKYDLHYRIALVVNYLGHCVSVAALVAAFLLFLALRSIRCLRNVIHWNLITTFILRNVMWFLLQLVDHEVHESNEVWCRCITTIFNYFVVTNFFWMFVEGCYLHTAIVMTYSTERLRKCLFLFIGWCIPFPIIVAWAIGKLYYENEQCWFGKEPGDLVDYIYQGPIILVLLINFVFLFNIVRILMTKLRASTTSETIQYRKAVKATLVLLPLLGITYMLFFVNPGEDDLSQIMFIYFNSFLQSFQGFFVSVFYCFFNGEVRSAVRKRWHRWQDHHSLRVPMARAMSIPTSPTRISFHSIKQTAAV
T5 sequence (P24387 whole entry): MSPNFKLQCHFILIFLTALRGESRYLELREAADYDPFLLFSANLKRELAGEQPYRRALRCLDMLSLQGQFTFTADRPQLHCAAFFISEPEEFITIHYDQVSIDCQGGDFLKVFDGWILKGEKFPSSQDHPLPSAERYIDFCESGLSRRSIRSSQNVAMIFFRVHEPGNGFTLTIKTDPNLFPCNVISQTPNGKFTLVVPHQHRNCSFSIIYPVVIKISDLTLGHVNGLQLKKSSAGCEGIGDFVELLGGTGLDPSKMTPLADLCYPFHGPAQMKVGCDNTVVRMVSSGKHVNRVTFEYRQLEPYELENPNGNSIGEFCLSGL

[18] = target: T5, Corticotropin-releasing factor receptor 2/Corticotropin-releasing factor-binding protein; experiment: activators of CRF receptor 2 with binding protein – uHTS hits, confirmation (AID 602473); format: functional; conditions: read-out: EC50_Mean
[19] = blockers of CRF-binding protein–CRF-R2 complex – cell-based, uHTS hits, 384-well, dose response (AID 651639); format: functional, Homo sapiens; conditions: read-out: IC50_Mean

Sequence of Peroxisome proliferator-activated receptor gamma/Nuclear receptor coactivator 2 (P37231 whole entry): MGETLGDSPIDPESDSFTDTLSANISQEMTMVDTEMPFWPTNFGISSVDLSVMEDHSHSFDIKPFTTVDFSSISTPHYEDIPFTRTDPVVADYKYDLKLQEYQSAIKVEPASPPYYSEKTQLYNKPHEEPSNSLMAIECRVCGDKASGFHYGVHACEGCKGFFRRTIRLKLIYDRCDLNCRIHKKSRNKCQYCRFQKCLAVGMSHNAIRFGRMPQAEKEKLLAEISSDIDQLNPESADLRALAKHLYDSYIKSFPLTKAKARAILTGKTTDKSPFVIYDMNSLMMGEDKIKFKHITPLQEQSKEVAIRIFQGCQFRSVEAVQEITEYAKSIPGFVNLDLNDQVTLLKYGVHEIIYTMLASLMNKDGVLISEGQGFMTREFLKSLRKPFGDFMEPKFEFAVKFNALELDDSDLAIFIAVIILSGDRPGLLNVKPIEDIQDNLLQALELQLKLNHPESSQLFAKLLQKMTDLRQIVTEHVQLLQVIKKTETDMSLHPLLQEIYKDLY
Sequence of Peroxisome proliferator-activated receptor gamma/Nuclear receptor coactivator 2 (Q15596 whole entry, further chain): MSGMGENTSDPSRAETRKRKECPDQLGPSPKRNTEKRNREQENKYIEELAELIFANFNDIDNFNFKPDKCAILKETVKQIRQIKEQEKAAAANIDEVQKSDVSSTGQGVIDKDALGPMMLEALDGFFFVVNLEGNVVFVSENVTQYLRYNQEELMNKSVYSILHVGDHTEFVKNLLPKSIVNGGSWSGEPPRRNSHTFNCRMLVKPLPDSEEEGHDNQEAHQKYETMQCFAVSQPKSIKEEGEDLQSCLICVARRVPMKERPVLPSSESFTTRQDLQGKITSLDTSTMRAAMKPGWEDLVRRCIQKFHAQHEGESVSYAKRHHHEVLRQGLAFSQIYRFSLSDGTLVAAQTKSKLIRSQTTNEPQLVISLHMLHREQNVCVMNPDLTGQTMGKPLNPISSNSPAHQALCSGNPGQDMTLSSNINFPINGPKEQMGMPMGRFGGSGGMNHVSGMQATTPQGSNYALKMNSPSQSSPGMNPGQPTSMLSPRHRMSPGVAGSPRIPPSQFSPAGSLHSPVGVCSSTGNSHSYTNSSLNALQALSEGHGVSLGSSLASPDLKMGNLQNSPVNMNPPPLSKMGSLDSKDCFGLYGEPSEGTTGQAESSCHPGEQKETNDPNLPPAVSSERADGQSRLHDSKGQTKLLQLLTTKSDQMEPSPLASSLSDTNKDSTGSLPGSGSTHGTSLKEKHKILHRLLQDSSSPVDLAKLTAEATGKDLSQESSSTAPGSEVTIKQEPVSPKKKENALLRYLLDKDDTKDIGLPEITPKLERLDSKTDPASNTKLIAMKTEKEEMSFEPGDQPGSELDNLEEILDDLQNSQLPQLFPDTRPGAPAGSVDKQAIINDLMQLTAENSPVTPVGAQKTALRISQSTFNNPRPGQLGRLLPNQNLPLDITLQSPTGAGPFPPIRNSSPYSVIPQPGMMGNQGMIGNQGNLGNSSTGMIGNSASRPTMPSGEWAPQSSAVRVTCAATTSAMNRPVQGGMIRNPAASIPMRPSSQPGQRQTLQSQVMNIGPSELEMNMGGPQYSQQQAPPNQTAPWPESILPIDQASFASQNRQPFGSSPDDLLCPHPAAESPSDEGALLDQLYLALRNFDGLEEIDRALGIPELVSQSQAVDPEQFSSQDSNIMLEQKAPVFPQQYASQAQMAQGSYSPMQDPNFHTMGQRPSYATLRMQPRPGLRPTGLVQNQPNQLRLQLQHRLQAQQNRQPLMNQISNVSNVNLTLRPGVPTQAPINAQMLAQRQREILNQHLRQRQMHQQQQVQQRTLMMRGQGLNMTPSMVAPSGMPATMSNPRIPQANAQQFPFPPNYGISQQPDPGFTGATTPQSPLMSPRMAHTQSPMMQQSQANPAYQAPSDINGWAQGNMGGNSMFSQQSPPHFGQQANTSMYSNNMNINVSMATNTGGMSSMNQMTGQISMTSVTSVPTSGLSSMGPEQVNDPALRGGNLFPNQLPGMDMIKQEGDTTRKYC
Sequence of Peroxisome proliferator-activated receptor gamma/Nuclear receptor coactivator 3 (P37231 whole entry): as the sequence (P37231 whole entry) above
Sequence of Peroxisome proliferator-activated receptor gamma/Nuclear receptor coactivator 3 (Q9Y6Q9 whole entry, further chain): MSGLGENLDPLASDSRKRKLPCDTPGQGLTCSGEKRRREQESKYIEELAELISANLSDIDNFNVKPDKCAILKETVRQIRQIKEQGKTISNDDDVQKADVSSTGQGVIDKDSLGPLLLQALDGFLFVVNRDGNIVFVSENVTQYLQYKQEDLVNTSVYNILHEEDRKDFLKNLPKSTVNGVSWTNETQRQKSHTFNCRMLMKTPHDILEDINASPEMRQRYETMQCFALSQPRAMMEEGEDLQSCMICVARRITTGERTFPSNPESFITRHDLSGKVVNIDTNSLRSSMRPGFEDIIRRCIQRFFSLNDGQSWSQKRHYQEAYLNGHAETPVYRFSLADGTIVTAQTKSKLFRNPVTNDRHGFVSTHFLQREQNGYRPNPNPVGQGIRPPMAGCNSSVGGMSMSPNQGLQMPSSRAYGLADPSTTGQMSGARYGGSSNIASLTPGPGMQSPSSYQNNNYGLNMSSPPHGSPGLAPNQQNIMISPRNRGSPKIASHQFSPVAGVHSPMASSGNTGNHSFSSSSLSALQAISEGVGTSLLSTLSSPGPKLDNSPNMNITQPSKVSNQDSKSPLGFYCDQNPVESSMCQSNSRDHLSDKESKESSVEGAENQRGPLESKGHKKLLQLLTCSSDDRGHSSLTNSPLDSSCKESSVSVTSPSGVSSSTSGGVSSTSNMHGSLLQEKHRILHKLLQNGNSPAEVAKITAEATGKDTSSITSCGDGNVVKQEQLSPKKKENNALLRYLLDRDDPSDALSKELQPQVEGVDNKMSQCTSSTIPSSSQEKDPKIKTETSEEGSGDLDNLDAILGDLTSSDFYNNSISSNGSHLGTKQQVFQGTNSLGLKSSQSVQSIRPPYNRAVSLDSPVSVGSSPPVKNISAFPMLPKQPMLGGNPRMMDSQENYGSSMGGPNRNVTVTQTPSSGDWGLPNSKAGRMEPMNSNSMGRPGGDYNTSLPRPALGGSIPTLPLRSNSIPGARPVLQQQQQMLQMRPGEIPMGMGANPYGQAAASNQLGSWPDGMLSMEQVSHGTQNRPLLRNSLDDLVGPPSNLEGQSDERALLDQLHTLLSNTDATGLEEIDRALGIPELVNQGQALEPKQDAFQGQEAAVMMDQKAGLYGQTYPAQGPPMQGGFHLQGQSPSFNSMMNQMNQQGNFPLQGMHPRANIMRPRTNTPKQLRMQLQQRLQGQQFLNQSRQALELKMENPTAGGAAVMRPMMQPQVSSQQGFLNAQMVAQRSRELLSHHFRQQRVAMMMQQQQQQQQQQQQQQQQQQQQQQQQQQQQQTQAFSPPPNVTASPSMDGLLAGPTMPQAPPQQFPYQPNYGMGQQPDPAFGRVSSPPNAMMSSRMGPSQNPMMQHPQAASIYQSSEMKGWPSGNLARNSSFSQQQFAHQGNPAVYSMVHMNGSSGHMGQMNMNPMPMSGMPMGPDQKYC
Sequence of Eukaryotic translation initiation factor 4E (P63073 whole entry): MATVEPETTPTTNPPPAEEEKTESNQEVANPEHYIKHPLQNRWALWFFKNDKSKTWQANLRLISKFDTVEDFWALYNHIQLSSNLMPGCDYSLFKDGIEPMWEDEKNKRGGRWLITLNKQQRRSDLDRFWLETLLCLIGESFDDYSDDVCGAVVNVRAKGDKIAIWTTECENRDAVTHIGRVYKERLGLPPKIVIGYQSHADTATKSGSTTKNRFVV
Sequence of Glyceraldehyde-3-phosphate dehydrogenase (P04406 whole entry): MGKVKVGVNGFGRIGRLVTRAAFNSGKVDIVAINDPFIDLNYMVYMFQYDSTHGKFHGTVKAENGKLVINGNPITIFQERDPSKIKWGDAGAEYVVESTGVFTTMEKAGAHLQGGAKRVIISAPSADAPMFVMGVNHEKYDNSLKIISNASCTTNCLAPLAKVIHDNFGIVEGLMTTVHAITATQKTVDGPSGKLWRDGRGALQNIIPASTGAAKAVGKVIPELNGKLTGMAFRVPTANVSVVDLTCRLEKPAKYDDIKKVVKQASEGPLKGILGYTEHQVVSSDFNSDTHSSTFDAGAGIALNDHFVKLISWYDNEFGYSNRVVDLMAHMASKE
Sequence of Melanocortin receptor 4 (P32245 whole entry): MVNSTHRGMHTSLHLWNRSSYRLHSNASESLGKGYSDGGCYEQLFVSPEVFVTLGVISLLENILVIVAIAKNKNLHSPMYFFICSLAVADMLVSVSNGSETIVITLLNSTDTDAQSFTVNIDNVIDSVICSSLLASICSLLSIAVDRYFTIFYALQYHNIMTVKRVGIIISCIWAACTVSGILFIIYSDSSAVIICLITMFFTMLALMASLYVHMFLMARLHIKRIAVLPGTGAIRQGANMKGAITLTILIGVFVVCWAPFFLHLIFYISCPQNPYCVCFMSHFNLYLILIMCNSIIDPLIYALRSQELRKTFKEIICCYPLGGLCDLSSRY

In the case of CCOC(=O)CSc1nc2ccc(Nc3nc(N4CCOCC4)nc(N4CCOCC4)n3)cc2s1, the EC50 [1] is reported as > 300 µM (not active), the EC50 [2] is reported as > 300 µM (not active) and the IC50 (Melanocortin receptor 4) is reported as > 64.6 µM (inactive). The IC50 [3] was > 64.6 µM (inactive).

With O=c1oc2ccccc2cc1-c1cn2ccccc2n1 the EC50 [4] was > 79.4 µM (not active), the EC50 [5] was > 79.4 µM (not active) and the EC50 [6] was > 79.4 µM (not active). For the same molecule, the EC50 (BJ [7]) was 11 µM (active), the EC50 (BJ [8]) was 2.92 µM (active) and the EC50 (BJ [9]) was 17.1 µM (active). For the same molecule, the EC50 [10] was 3.59 µM (active), the AC50 [11] was 3.64 µM (active) and the AC50 [12] was > 70 µM (inactive). The AC50 [13] was 20.3 µM (active).

For COc1ccc(C2=CSC3=NCCN23)cc1F, the IC50 [14] was > 64 µM (inactive) and the IC50 (Coagulation factor XII) was > 50 µM (inactive).

With COc1ccc(S(=O)(=O)Nc2ccncc2)cc1OC the IC50 [15] was > 100 µM (not active) and the IC50 [16] was > 100 µM (inactive).

For OC(C#CCN1CCCC1)(c1ccccc1)c1cccc(F)c1 (stereo unspecified), the EC50 [4] was > 79.4 µM (not active), the EC50 [5] was > 79.4 µM (not active) and the EC50 [6] was > 79.4 µM (not active).

For O=C(NCCc1ccncc1)c1ccccc1F, the IC50 [14] was > 64 µM (inactive).

With CC(C)N1CCN(Cc2ccc(Oc3ncccn3)cc2)CC1CCO (stereo unspecified) the EC50 [4] was > 79.4 µM (not active), the EC50 [5] was > 79.4 µM (not active) and the EC50 [6] was > 79.4 µM (not active).

For COc1ccccc1Nc1nc(N)nc(CSC(=S)N2CC(C)CC(C)C2)n1 (stereo unspecified), the IC50 [17] was 32 µM (active), the EC50 [18] was > 53 µM (inactive) and the IC50 [19] was > 20 µM (inactive).

For CCCOc1ccc(C(=O)NC(C)C(=O)O)cc1 (stereo unspecified), the IC50 (Coagulation factor XII) was > 50 µM (inactive).

In the case of Cc1ccc(S(=O)(=O)Nc2nc3ccccc3nc2Cl)cc1, the IC50 [15] is reported as > 100 µM (not active) and the IC50 [16] is reported as > 100 µM (inactive).
